Test results as given in BigSolDB 2.1.

With `Cc1ccc(Nc2nccc(N(C)c3ccc4c(C)n(C)nc4c3)n2)cc1S(N)(=O)=O` as the compound, how does the solubility (mole fraction) (in ethanol, 288.15 K) read?
The solubility (mole fraction) was 7.97e-06.

What about the solubility (mole fraction) (in ethanol, 293.15 K) of the same compound?
The solubility (mole fraction) was 1.01e-05.

And the solubility (mole fraction) (in ethanol, 298.15 K)?
Its solubility (mole fraction) is 1.27e-05.

What about the solubility (mole fraction) (in ethanol, 303.15 K) of the same compound?
The solubility (mole fraction) was 1.61e-05.

And the solubility (mole fraction) (in ethanol, 308.15 K)?
Its solubility (mole fraction) is 1.96e-05.

And the solubility (mole fraction) (in ethanol, 313.15 K)?
Its solubility (mole fraction) is 2.36e-05.

What about the solubility (mole fraction) (in ethanol, 318.15 K) of the same compound?
Its solubility (mole fraction) is 2.85e-05.

And the solubility (mole fraction) (in ethanol, 323.15 K)?
Its solubility (mole fraction) is 3.41e-05.

What about the solubility (mole fraction) (in ethanol, 328.15 K) of the same compound?
Its solubility (mole fraction) is 4.04e-05.

And the solubility (mole fraction) (in ethyl acetate, 288.15 K)?
Its solubility (mole fraction) is 6.17e-06.

And the solubility (mole fraction) (in ethyl acetate, 293.15 K)?
Its solubility (mole fraction) is 8.06e-06.

What about the solubility (mole fraction) (in ethyl acetate, 298.15 K) of the same compound?
The solubility (mole fraction) was 1.04e-05.

And the solubility (mole fraction) (in ethyl acetate, 303.15 K)?
The solubility (mole fraction) was 1.31e-05.

And the solubility (mole fraction) (in ethyl acetate, 308.15 K)?
Its solubility (mole fraction) is 1.63e-05.

What about the solubility (mole fraction) (in ethyl acetate, 313.15 K) of the same compound?
Its solubility (mole fraction) is 2e-05.

And the solubility (mole fraction) (in ethyl acetate, 318.15 K)?
The solubility (mole fraction) was 2.48e-05.

What about the solubility (mole fraction) (in ethyl acetate, 323.15 K) of the same compound?
Its solubility (mole fraction) is 3.06e-05.

And the solubility (mole fraction) (in ethyl acetate, 328.15 K)?
The solubility (mole fraction) was 3.7e-05.

And the solubility (mole fraction) (in isopropanol, 288.15 K)?
Its solubility (mole fraction) is 9.43e-06.

And the solubility (mole fraction) (in isopropanol, 293.15 K)?
The solubility (mole fraction) was 1.19e-05.

And the solubility (mole fraction) (in isopropanol, 298.15 K)?
The solubility (mole fraction) was 1.49e-05.

And the solubility (mole fraction) (in isopropanol, 303.15 K)?
The solubility (mole fraction) was 1.86e-05.

What about the solubility (mole fraction) (in isopropanol, 308.15 K) of the same compound?
Its solubility (mole fraction) is 2.25e-05.

And the solubility (mole fraction) (in isopropanol, 313.15 K)?
Its solubility (mole fraction) is 2.71e-05.

And the solubility (mole fraction) (in isopropanol, 318.15 K)?
The solubility (mole fraction) was 3.25e-05.

What about the solubility (mole fraction) (in isopropanol, 323.15 K) of the same compound?
Its solubility (mole fraction) is 3.9e-05.

And the solubility (mole fraction) (in isopropanol, 328.15 K)?
The solubility (mole fraction) was 4.69e-05.
